Results taken from patent publication US20220095617A1, “PLANT GROWTH REGULATING AGENT” (IDEMITSU KOSAN CO.,LTD., priority 2019, published 2022).

Test system: lettuce (Green Wave)
Test: Example 16: Growth-promoting effect (lettuce, drenching treatment)
Assay type: in vivo
Conditions: for Increase/decrease of above-ground part / Increase/decrease of underground part: non-addition group = 100%; for Weight of above-ground part FW / Weight of underground part FW: 25° C., 14 days
Description: Lettuce (Green Wave) was sown on a cell tray filled with seedling culture soil (manufactured by Nihon Hiryo Co., Ltd.; “Naebijin N100”). After the two leaf stage, the lettuce was transplanted to each pot (soil volume, 100 ml). […]

COc1ccc([C@@H]2CC(=O)c3c(O)cc(O[C@@H]4O[C@H](CO[C@@H]5O[C@@H](C)[C@H](O)[C@@H](O)[C@H]5O)[C@@H](O)[C@H](O)[C@H]4O)cc3O2)cc1O [Hesperidin]
Increase/decrease of above-ground part (1 ppm): 103% | Increase/decrease of underground part (1 ppm): 115% | Increase/decrease of above-ground part (3 ppm): 126% | Increase/decrease of underground part (3 ppm): 119% | Increase/decrease of above-ground part (100 ppm): 118% | Increase/decrease of underground part (100 ppm): 123% | Weight of above-ground part FW (drenching treatment 1 ppm): 13.26 mg/individual | Weight of underground part FW (drenching treatment 1 ppm): 7.99 mg/individual | Weight of above-ground part FW (drenching treatment 3 ppm): 16.17 mg/individual | Weight of underground part FW (drenching treatment 3 ppm): 8.29 mg/individual | Weight of above-ground part FW (drenching treatment 100 ppm): 15.12 mg/individual | Weight of underground part FW (drenching treatment 100 ppm): 8.57 mg/individual
